According to PubChem BioAssay AID2060617 (Molecular Pharmacology Branch, DTP, NCI, 2025):

Test system: 485368-065-R4-J2-PDC spheroids with HUVEC/MSC, viability
Experiment: Anticancer human tumor 485368-065-R4-J2-PDC patient-derived pancreatic carcinoma cell line growth inhibition [CLK]
Settings: for IC50: curve of first compound; for viability, T/C: stronger effect = lower value; active means viability on the fitted dose curve at most 10% of control; inactive means the rest
In short: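 Patient-derived tumor cells grown as complex spheroids with HUVEC endothelial cells and mesenchymal stem cells, treated with drug combinations. Concentrations descend in half-log steps from near clinical Cmax, or from 10 microM if Cmax unknown.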

[1] = second compound 0.0316 µM, first compound 0.0316 µM
[2] = second compound 0.0316 µM, first compound 0.1 µM
[3] = second compound 0.0316 µM, first compound 0.316 µM
[4] = second compound 0.0316 µM, first compound 1 µM
[5] = second compound 0.0316 µM, first compound 3.16 µM
[6] = second compound 0.0316 µM, first compound 10 µM
[7] = second compound 0.1 µM, first compound 0.0316 µM
[8] = second compound 0.1 µM, first compound 0.1 µM
[9] = second compound 0.1 µM, first compound 0.316 µM
[10] = second compound 0.1 µM, first compound 1 µM
[11] = second compound 0.1 µM, first compound 3.16 µM
[12] = second compound 0.1 µM, first compound 10 µM
[13] = second compound 0.316 µM, first compound 0.0316 µM
[14] = second compound 0.316 µM, first compound 0.1 µM
[15] = second compound 0.316 µM, first compound 0.316 µM
[16] = second compound 0.316 µM, first compound 1 µM
[17] = second compound 0.316 µM, first compound 3.16 µM
[18] = second compound 0.316 µM, first compound 10 µM
[19] = second compound 1 µM, first compound 0.0316 µM
[20] = second compound 1 µM, first compound 0.1 µM
[21] = second compound 1 µM, first compound 0.316 µM
[22] = second compound 1 µM, first compound 1 µM
[23] = second compound 1 µM, first compound 3.16 µM
[24] = second compound 1 µM, first compound 10 µM
[25] = second compound 3.16 µM, first compound 0.0316 µM
[26] = second compound 3.16 µM, first compound 0.1 µM
[27] = second compound 3.16 µM, first compound 0.316 µM
[28] = second compound 3.16 µM, first compound 1 µM
[29] = second compound 3.16 µM, first compound 3.16 µM
[30] = second compound 3.16 µM, first compound 10 µM
[31] = second compound 10 µM, first compound 0.0316 µM
[32] = second compound 10 µM, first compound 0.1 µM
[33] = second compound 10 µM, first compound 0.316 µM
[34] = second compound 10 µM, first compound 1 µM
[35] = second compound 10 µM, first compound 3.16 µM
[36] = second compound 10 µM, first compound 10 µM
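Further: spheroids exposed to compounds for seven days.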
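Wherever viability, T/C is given: 100% = DMSO vehicle control wells.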

CCCS(=O)(=O)Nc1ccc(F)c(C(=O)c2c[nH]c3ncc(-c4ccc(Cl)cc4)cc23)c1F + CN1CCN(c2cc(C(=O)Nc3cc4cc(-c5cnn(C)c5)ccc4cn3)ccn2)CC1
active: viability, T/C [19] 0.91% | viability, T/C [20] 2.34% | viability, T/C [21] 4.24% | viability, T/C [22] 1.9% | viability, T/C [23] 5.13% | viability, T/C [24] 3.9% | viability, T/C [25] 2.27% | viability, T/C [26] 3.77% | viability, T/C [27] 2.71% | viability, T/C [28] 3.9% | viability, T/C [29] 3.24% | viability, T/C [30] 5.64% | viability, T/C [31] 1.34% | viability, T/C [32] 4.22% | viability, T/C [33] 2.17% | viability, T/C [34] 3.01% | viability, T/C [35] 4.86% | viability, T/C [36] 6.03%
inactive: viability, T/C [1] 112% | viability, T/C [2] 98.8% | viability, T/C [3] 98.3% | viability, T/C [4] 111% | viability, T/C [5] 93.8% | viability, T/C [6] 111% | viability, T/C [7] 105% | viability, T/C [8] 112% | viability, T/C [9] 103% | viability, T/C [10] 103% | viability, T/C [11] 96.5% | viability, T/C [12] 94.5% | viability, T/C [13] 84.1% | viability, T/C [14] 99.5% | viability, T/C [15] 102% | viability, T/C [16] 96.2% | viability, T/C [17] 97.9% | viability, T/C [18] 64.2%
> 10000 nM: IC50 (second compound 0.0316 µM) | IC50 (second compound 0.1 µM) | IC50 (second compound 0.316 µM)
< 31.6 nM: IC50 (second compound 1 µM) | IC50 (second compound 3.16 µM) | IC50 (second compound 10 µM)

CCN1CCN(Cc2ccc(Nc3ncc(F)c(-c4cc(F)c5nc(C)n(C(C)C)c5c4)n3)nc2)CC1 + CN1CCN(c2cc(C(=O)Nc3cc4cc(-c5cnn(C)c5)ccc4cn3)ccn2)CC1
active: viability, T/C (second compound 1 µM, first compound 0.00316 µM) 0.99% | viability, T/C (second compound 1 µM, first compound 0.01 µM) 0.79% | viability, T/C [19] 1.5% | viability, T/C [20] 1.72% | viability, T/C [21] 3.79% | viability, T/C [22] 6.61% | viability, T/C (second compound 3.16 µM, first compound 0.00316 µM) 1.45% | viability, T/C (second compound 3.16 µM, first compound 0.01 µM) 1.98% | viability, T/C [25] 1.44% | viability, T/C [26] 3.25% | viability, T/C [27] 3.87% | viability, T/C [28] 6.47% | viability, T/C (second compound 10 µM, first compound 0.00316 µM) 1.45% | viability, T/C (second compound 10 µM, first compound 0.01 µM) 1.41% | viability, T/C [31] 2.59% | viability, T/C [32] 1.89% | viability, T/C [33] 2.62% | viability, T/C [34] 3.7%
inactive: viability, T/C (second compound 0.0316 µM, first compound 0.00316 µM) 94.5% | viability, T/C (second compound 0.0316 µM, first compound 0.01 µM) 116% | viability, T/C [1] 110% | viability, T/C [2] 138% | viability, T/C [3] 132% | viability, T/C [4] 120% | viability, T/C (second compound 0.1 µM, first compound 0.00316 µM) 103% | viability, T/C (second compound 0.1 µM, first compound 0.01 µM) 112% | viability, T/C [7] 113% | viability, T/C [8] 113% | viability, T/C [9] 126% | viability, T/C [10] 109% | viability, T/C (second compound 0.316 µM, first compound 0.00316 µM) 79% | viability, T/C (second compound 0.316 µM, first compound 0.01 µM) 76.1% | viability, T/C [13] 79.3% | viability, T/C [14] 78.9% | viability, T/C [15] 66.8% | viability, T/C [16] 60.7%
< 3.16 nM: IC50 (second compound 1 µM) | IC50 (second compound 3.16 µM) | IC50 (second compound 10 µM)
> 1000 nM: IC50 (second compound 0.0316 µM) | IC50 (second compound 0.1 µM) | IC50 (second compound 0.316 µM)

CC1COCCN1c1cc(C2(S(C)(=N)=O)CC2)nc(-c2ccnc3[nH]ccc23)n1 (stereo not drawn) + CN1CCN(c2cc(C(=O)Nc3cc4cc(-c5cnn(C)c5)ccc4cn3)ccn2)CC1
active: viability, T/C [19] 1% | viability, T/C [20] 1.87% | viability, T/C [21] 1.95% | viability, T/C [22] 1.83% | viability, T/C [23] 1.71% | viability, T/C [24] 2.07% | viability, T/C [25] 1.39% | viability, T/C [26] 2.33% | viability, T/C [27] 2.68% | viability, T/C [28] 2.72% | viability, T/C [29] 3.59% | viability, T/C [30] 1.89% | viability, T/C [31] 1.49% | viability, T/C [32] 2.62% | viability, T/C [33] 2.44% | viability, T/C [34] 1.98% | viability, T/C [35] 1.76% | viability, T/C [36] 3.15%
< 31.6 nM: IC50 (second compound 1 µM) | IC50 (second compound 3.16 µM) | IC50 (second compound 10 µM)
inactive: viability, T/C [1] 102% | viability, T/C [2] 111% | viability, T/C [3] 102% | viability, T/C [4] 119% | viability, T/C [5] 118% | viability, T/C [6] 107% | viability, T/C [7] 107% | viability, T/C [8] 119% | viability, T/C [9] 113% | viability, T/C [10] 120% | viability, T/C [11] 103% | viability, T/C [12] 90.9% | viability, T/C [13] 88.5% | viability, T/C [14] 88.3% | viability, T/C [15] 74.8% | viability, T/C [16] 75.2% | viability, T/C [17] 60.3% | viability, T/C [18] 44.4%
6830 nM: IC50 (second compound 0.316 µM)
> 10000 nM: IC50 (second compound 0.0316 µM) | IC50 (second compound 0.1 µM)

CC(CO)NC(=O)c1cc(-c2ccc(Cl)cc2)nn(-c2cnn(C)c2)c1=O (stereo not drawn) + CN1CCN(c2cc(C(=O)Nc3cc4cc(-c5cnn(C)c5)ccc4cn3)ccn2)CC1
> 10000 nM: IC50 (second compound 0.0316 µM) | IC50 (second compound 0.1 µM) | IC50 (second compound 0.316 µM)
< 31.6 nM: IC50 (second compound 1 µM) | IC50 (second compound 3.16 µM) | IC50 (second compound 10 µM)
inactive: viability, T/C [1] 91.7% | viability, T/C [2] 106% | viability, T/C [3] 99.8% | viability, T/C [4] 105% | viability, T/C [5] 104% | viability, T/C [6] 101% | viability, T/C [7] 114% | viability, T/C [8] 116% | viability, T/C [9] 108% | viability, T/C [10] 116% | viability, T/C [11] 105% | viability, T/C [12] 99.3% | viability, T/C [13] 87.2% | viability, T/C [14] 87.9% | viability, T/C [15] 91% | viability, T/C [16] 82.5% | viability, T/C [17] 78.1% | viability, T/C [18] 79.1%
active: viability, T/C [19] 1.07% | viability, T/C [20] 2.15% | viability, T/C [21] 1.7% | viability, T/C [22] 1.69% | viability, T/C [23] 1.72% | viability, T/C [24] 2.66% | viability, T/C [25] 2.09% | viability, T/C [26] 1.46% | viability, T/C [27] 1.34% | viability, T/C [28] 1.32% | viability, T/C [29] 1.45% | viability, T/C [30] 3.08% | viability, T/C [31] 1.44% | viability, T/C [32] 4.18% | viability, T/C [33] 1.35% | viability, T/C [34] 1.26% | viability, T/C [35] 2.31% | viability, T/C [36] 1.01%
